For data set [1], the system named is MLV pseudovirus bearing JUNV glycoprotein. The experiment in a line: microbe, parasite or virus in culture. The following applies: Vero, 24 h. The data set is classed as cell-based.
Data set [2] relates to MLV pseudovirus bearing LCMV glycoprotein. Description: microbe, parasite or virus in culture. The data set is classed as cell-based. The note with it: Vero, 24 h.
In data set [3] the test system is MLV pseudovirus bearing PICV WT glycoprotein. Description: microbe, parasite or virus in culture. It counts as cell-based. The note with it: Vero, 24 h.
The subject of data set [4] is MLV pseudovirus bearing MARV Angola glycoprotein. Description: microbe, parasite or virus in culture. It counts as cell-based.
Data set [5] deals with MLV pseudovirus bearing MARV Musoke glycoprotein. The experiment in a line: microbe, parasite or virus in culture. It counts as cell-based.
In a further data set the test system is PICV-GFP. Description: microbe, parasite or virus in culture. The data set is classed as cell-based. The note with it: Pichinde virus, Vero C1008, 48 h.
The subject of the next data set is LASV Josiah. The experiment in a line: microbe, parasite or virus in culture. It counts as cell-based, Lassa virus. The note with it: Mammarenavirus lassaense, Vero C1008.
For a further data set, the system named is arenaviruses. Description: organism not typed. It counts as cell-based. The following applies: read-out: in vitro IC50.
The subject of another data set is EBOV and MARV. Description: microbe, parasite or virus in culture. The data set is classed as cell-based. The following applies: Zaire ebolavirus, read-out: in vitro IC50.
Data set [6] concerns LASV and JUNV pseudoviruses. Description: organism not typed. The data set is classed as cell-based.
The conditions of data set [7]: human, in vivo, cited from earlier work.

Where two headings read alike, the source gives them in different places. A value given as a limit tells only on which side of the number the result lay.

In the case of `CCOC(=O)c1c(CSc2ccccc2)n(C)c2cc(Br)c(O)c(CN(C)C)c12` [arbidol], the IC50 (in general, the concentration needed to halve the response being measured) is 6.4 µM in data set [1]; 7.4 µM in data set [2]; 7.4 µM in [3]; 3.9 µM in [4]; 3.5 µM in [5]; 8.4 µM in the data set with PICV-GFP. Further, the IC50 was 10 µM in the data set on LASV Josiah; 6 to 10 µM with arenaviruses; 2.7 to 3.9 µM with EBOV and MARV; 3 to 4 µM in [6] (read-out: IC50 of arbidol in combination). In addition, in data set [6], the “fold reduction of IC50 of arbidol by combination” value is on record as “about 2 fold”. The highest concentration (Cmax) (commonly the maximum level reached in the sampled fluid or tissue) was 900 to 1500 nM in data set [7] (po) and 4000 nM in data set [7].

As for `O=C(Nc1ccc([N+](=O)[O-])cc1Cl)c1cc(Cl)ccc1O` [niclosamide], the IC50 is below 0.2 µM in the data set with PICV-GFP and 0.2 µM in the data set on LASV Josiah.

As to `CCN(CC)Cc1cc(Nc2ccnc3cc(Cl)ccc23)ccc1O` [amodiaquine], half-maximal inhibition in the data set on PICV-GFP (IC50) was put at 4.5 µM.

Values taken from US20230210816A1 (priority 2020, published 2023).
